Test results published in ChEMBL document CHEMBL3885881, “DrugMatrix”.

Species: Rattus norvegicus
Test: DrugMatrix - Regimen: Daily Repeat
Format: toxicity, organism-based, Sprague-Dawley
Design: regimen Daily Repeat, gender Male, age 6-8 weeks
Settings: in vivo, po, route oral GAVAGE; for ABSOLUTE BASOPHIL / BASOPHIL / NUCLEATED RED BLOOD CELLS / ABSOLUTE EOSINOPHIL / ABSOLUTE LYMPHOCYTE / ABSOLUTE MONOCYTE / ABSOLUTE SEGMENTED NEUTROPHIL / EOSINOPHIL / ERYTHROCYTE COUNT / HEMATOCRIT / HEMOGLOBIN / LEUKOCYTE COUNT / LYMPHOCYTE / MEAN CORPUSCULAR HEMOGLOBIN / MEAN CORPUSCULAR VOLUME / MONOCYTE / NEUTROPHIL / PLATELET COUNT / MEAN CORPUSCULAR HEMOGLOBIN CONCENTRATION: tissue Blood; for ALANINE AMINOTRANSFERASE / ALBUMIN / ALKALINE PHOSPHATASE / ASPARTATE AMINOTRANSFERASE / BLOOD UREA NITROGEN / CARBON DIOXIDE / CHLORIDE / CHOLESTEROL / CREATINE PHOSPHOKINASE / CREATININE / GLUCOSE / LACTATE DEHYDROGENASE / LIPASE / PHOSPHORUS / SODIUM / TOTAL BILIRUBIN / TOTAL PROTEIN / URIC ACID / POTASSIUM: tissue Plasma
[1] = 0 mg/kg, 72 h, dose level Control, time 3 day, […]
[2] = 0 mg/kg, 120 h, dose level Control, time 5 day, […]
[3] = 25 mg/kg, 72 h, dose level Low, time 3 day, […]
[4] = 25 mg/kg, 120 h, dose level Low, time 5 day, […]
[5] = 1500 mg/kg, 72 h, dose level High, time 3 day, vehicle .5 % CMC
[6] = 1500 mg/kg, 120 h, dose level High, time 5 day, vehicle .5 % CMC

CC(=O)N1CCN(c2ccc(OCC3COC(Cn4ccnc4)(c4ccc(Cl)cc4Cl)O3)cc2)CC1 (stereo not drawn) [KETOCONAZOLE]
ABSOLUTE BASOPHIL [1]: 0 CELLS/uL
BASOPHIL [1]: 0%
NUCLEATED RED BLOOD CELLS [1]: 0 /100WBC
ABSOLUTE BASOPHIL [2]: 0 CELLS/uL
BASOPHIL [2]: 0%
ABSOLUTE BASOPHIL [3]: 0 CELLS/uL
ABSOLUTE EOSINOPHIL [3]: 0 CELLS/uL
ABSOLUTE LYMPHOCYTE [3]: 6183 CELLS/uL
ABSOLUTE MONOCYTE [3]: 155.33 CELLS/uL
ABSOLUTE SEGMENTED NEUTROPHIL [3]: 695 CELLS/uL
BASOPHIL [3]: 0%
EOSINOPHIL [3]: 0%
ERYTHROCYTE COUNT [3]: 5.13 x10E6/uL
HEMATOCRIT [3]: 33.13%
HEMOGLOBIN [3]: 12.97 G/DL
LEUKOCYTE COUNT [3]: 7.03 x10E3/uL
LYMPHOCYTE [3]: 87.67%
MEAN CORPUSCULAR HEMOGLOBIN [3]: 25.3 pg
MEAN CORPUSCULAR VOLUME [3]: 64.73 fL
MONOCYTE [3]: 2%
NEUTROPHIL [3]: 10.33%
NUCLEATED RED BLOOD CELLS [3]: 0 /100WBC
PLATELET COUNT [3]: 1118 x10E3/uL
ALANINE AMINOTRANSFERASE [3]: 90.33 u/L
ALBUMIN [3]: 3.83 G/DL
ALKALINE PHOSPHATASE [3]: 423.67 u/L
ASPARTATE AMINOTRANSFERASE [3]: 89.33 u/L
BLOOD UREA NITROGEN [3]: 12.67 mg/dL
CARBON DIOXIDE [3]: 39 mmol/L
CHLORIDE [3]: 95.33 MEQ/L
CHOLESTEROL [3]: 74 mg/dL
CREATINE PHOSPHOKINASE [3]: 308.67 u/L
CREATININE [3]: 0.15 mg/dL
GLUCOSE [3]: 163.33 mg/dL
LACTATE DEHYDROGENASE [3]: 69.33 u/L
LIPASE [3]: 10 u/L
PHOSPHORUS [3]: 9.63 mg/dL
SODIUM [3]: 136.67 MEQ/L
TOTAL BILIRUBIN [3]: 0.13 mg/dL
TOTAL PROTEIN [3]: 5.53 G/DL
URIC ACID [3]: 0.43 mg/dL
ABSOLUTE BASOPHIL [4]: 0 CELLS/uL
ABSOLUTE EOSINOPHIL [4]: 0 CELLS/uL
ABSOLUTE LYMPHOCYTE [4]: 8189 CELLS/uL
ABSOLUTE MONOCYTE [4]: 181 CELLS/uL
ABSOLUTE SEGMENTED NEUTROPHIL [4]: 1063.33 CELLS/uL
BASOPHIL [4]: 0%
EOSINOPHIL [4]: 0%
ERYTHROCYTE COUNT [4]: 5.6 x10E6/uL
HEMATOCRIT [4]: 34.17%
HEMOGLOBIN [4]: 13.47 G/DL
LEUKOCYTE COUNT [4]: 9.43 x10E3/uL
LYMPHOCYTE [4]: 86.67%
MEAN CORPUSCULAR HEMOGLOBIN [4]: 24.07 pg
MEAN CORPUSCULAR VOLUME [4]: 61.1 fL
MONOCYTE [4]: 2%
NEUTROPHIL [4]: 11.33%
NUCLEATED RED BLOOD CELLS [4]: 0 /100WBC
PLATELET COUNT [4]: 903 x10E3/uL
ALANINE AMINOTRANSFERASE [4]: 74 u/L
ALBUMIN [4]: 4.17 G/DL
ALKALINE PHOSPHATASE [4]: 365.33 u/L
ASPARTATE AMINOTRANSFERASE [4]: 92.33 u/L
BLOOD UREA NITROGEN [4]: 11.33 mg/dL
CARBON DIOXIDE [4]: 29.33 mmol/L
CHLORIDE [4]: 103.67 MEQ/L
CHOLESTEROL [4]: 75 mg/dL
CREATINE PHOSPHOKINASE [4]: 400.67 u/L
CREATININE [4]: 0.26 mg/dL
GLUCOSE [4]: 155 mg/dL
LACTATE DEHYDROGENASE [4]: 99.67 u/L
LIPASE [4]: 11.67 u/L
PHOSPHORUS [4]: 11.1 mg/dL
SODIUM [4]: 144.93 MEQ/L
TOTAL BILIRUBIN [4]: 0.2 mg/dL
TOTAL PROTEIN [4]: 5.93 G/DL
URIC ACID [4]: 0.8 mg/dL

O=C(N[C@H](CO)[C@H](O)c1ccc([N+](=O)[O-])cc1)C(Cl)Cl [CHLORAMPHENICOL]
ABSOLUTE BASOPHIL [5]: 0 CELLS/uL
ABSOLUTE EOSINOPHIL [5]: 0 CELLS/uL
ABSOLUTE LYMPHOCYTE [5]: 14694 CELLS/uL
ABSOLUTE MONOCYTE [5]: 312.67 CELLS/uL
ABSOLUTE SEGMENTED NEUTROPHIL [5]: 793.33 CELLS/uL
BASOPHIL [5]: 0%
EOSINOPHIL [5]: 0%
ERYTHROCYTE COUNT [5]: 5.41 x10E6/uL
HEMATOCRIT [5]: 34.37%
HEMOGLOBIN [5]: 13.67 G/DL
LEUKOCYTE COUNT [5]: 15.8 x10E3/uL
LYMPHOCYTE [5]: 93%
MEAN CORPUSCULAR HEMOGLOBIN [5]: 25.33 pg
MEAN CORPUSCULAR HEMOGLOBIN CONCENTRATION [5]: 39.83 G/DL
MEAN CORPUSCULAR VOLUME [5]: 63.63 fL
MONOCYTE [5]: 2%
NEUTROPHIL [5]: 5%
NUCLEATED RED BLOOD CELLS [5]: 0 /100WBC
PLATELET COUNT [5]: 1264 x10E3/uL
ALANINE AMINOTRANSFERASE [5]: 78 u/L
ALBUMIN [5]: 4.33 G/DL
ALKALINE PHOSPHATASE [5]: 347 u/L
ASPARTATE AMINOTRANSFERASE [5]: 90.33 u/L
BLOOD UREA NITROGEN [5]: 15.67 mg/dL
CARBON DIOXIDE [5]: 37.67 mmol/L
CHLORIDE [5]: 101.33 MEQ/L
CHOLESTEROL [5]: 63 mg/dL
CREATINE PHOSPHOKINASE [5]: 530 u/L
CREATININE [5]: 0.15 mg/dL
GLUCOSE [5]: 150 mg/dL
LACTATE DEHYDROGENASE [5]: 92.67 u/L
LIPASE [5]: 9.33 u/L
PHOSPHORUS [5]: 10.53 mg/dL
POTASSIUM [5]: 6.53 MEQ/L
SODIUM [5]: 143.67 MEQ/L
TOTAL BILIRUBIN [5]: 0.13 mg/dL
TOTAL PROTEIN [5]: 5.6 G/DL
URIC ACID [5]: 1.4 mg/dL
ABSOLUTE BASOPHIL [6]: 0 CELLS/uL
ABSOLUTE EOSINOPHIL [6]: 0 CELLS/uL
ABSOLUTE LYMPHOCYTE [6]: 13927 CELLS/uL
ABSOLUTE MONOCYTE [6]: 280 CELLS/uL
ABSOLUTE SEGMENTED NEUTROPHIL [6]: 1126.33 CELLS/uL
BASOPHIL [6]: 0%
EOSINOPHIL [6]: 0%
ERYTHROCYTE COUNT [6]: 5.7 x10E6/uL
HEMATOCRIT [6]: 35.27%
HEMOGLOBIN [6]: 14.27 G/DL
LEUKOCYTE COUNT [6]: 15.33 x10E3/uL
LYMPHOCYTE [6]: 90.67%
MEAN CORPUSCULAR HEMOGLOBIN [6]: 25.07 pg
MEAN CORPUSCULAR HEMOGLOBIN CONCENTRATION [6]: 40.5 G/DL
MEAN CORPUSCULAR VOLUME [6]: 61.9 fL
MONOCYTE [6]: 2%
NEUTROPHIL [6]: 7.33%
NUCLEATED RED BLOOD CELLS [6]: 0.33 /100WBC
PLATELET COUNT [6]: 1090 x10E3/uL
ALANINE AMINOTRANSFERASE [6]: 63 u/L
ALBUMIN [6]: 4.13 G/DL
ALKALINE PHOSPHATASE [6]: 266.33 u/L
ASPARTATE AMINOTRANSFERASE [6]: 100.33 u/L
BLOOD UREA NITROGEN [6]: 22.33 mg/dL
CARBON DIOXIDE [6]: 35 mmol/L
CHLORIDE [6]: 103 MEQ/L
CHOLESTEROL [6]: 56 mg/dL
CREATINE PHOSPHOKINASE [6]: 359.67 u/L
CREATININE [6]: 0.2 mg/dL
GLUCOSE [6]: 144 mg/dL
LACTATE DEHYDROGENASE [6]: 180 u/L
LIPASE [6]: 8.67 u/L
PHOSPHORUS [6]: 9.33 mg/dL
POTASSIUM [6]: 9.76 MEQ/L
SODIUM [6]: 143.67 MEQ/L
TOTAL BILIRUBIN [6]: 0.17 mg/dL
TOTAL PROTEIN [6]: 5.23 G/DL
URIC ACID [6]: 1.3 mg/dL
